Measured values as given in patent publication US20100029615A1, “BENZIMIDAZOLE DERIVATIVES” (priority 2006, published 2010).
Counter-ions that a name gives are not always drawn.

Target: T1, SMO (Mus musculus, UniProt P56726)
T1 construct: endogenous in cells; host or cells: C3H10T1/2 (ATCC #CCL-226)
Assay: Smoothened (SMO)/Sonic Hedgehog (SHh) Transient Transcriptional Activation Assay (Gli-luciferase reporter in C3H10T1/2 cells)
Assay type: cell-based, murine
Conditions: 2 uM test compound, SHh 250 ng/ml, 20 hrs
Summary of the method: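 Luminescence (Dual-Glo) measured after 20 h co-exposure at 37 °C to 250 ng/ml human SHh and compound at 2 uM down to 2 nM final. Cells were C3H10T1/2 carrying a transfected murine 10× Gli response-element luciferase construct with pEGFP, starved 20 h in 0.5% calf serum beforehand.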

T1 sequence (P56726 33-793): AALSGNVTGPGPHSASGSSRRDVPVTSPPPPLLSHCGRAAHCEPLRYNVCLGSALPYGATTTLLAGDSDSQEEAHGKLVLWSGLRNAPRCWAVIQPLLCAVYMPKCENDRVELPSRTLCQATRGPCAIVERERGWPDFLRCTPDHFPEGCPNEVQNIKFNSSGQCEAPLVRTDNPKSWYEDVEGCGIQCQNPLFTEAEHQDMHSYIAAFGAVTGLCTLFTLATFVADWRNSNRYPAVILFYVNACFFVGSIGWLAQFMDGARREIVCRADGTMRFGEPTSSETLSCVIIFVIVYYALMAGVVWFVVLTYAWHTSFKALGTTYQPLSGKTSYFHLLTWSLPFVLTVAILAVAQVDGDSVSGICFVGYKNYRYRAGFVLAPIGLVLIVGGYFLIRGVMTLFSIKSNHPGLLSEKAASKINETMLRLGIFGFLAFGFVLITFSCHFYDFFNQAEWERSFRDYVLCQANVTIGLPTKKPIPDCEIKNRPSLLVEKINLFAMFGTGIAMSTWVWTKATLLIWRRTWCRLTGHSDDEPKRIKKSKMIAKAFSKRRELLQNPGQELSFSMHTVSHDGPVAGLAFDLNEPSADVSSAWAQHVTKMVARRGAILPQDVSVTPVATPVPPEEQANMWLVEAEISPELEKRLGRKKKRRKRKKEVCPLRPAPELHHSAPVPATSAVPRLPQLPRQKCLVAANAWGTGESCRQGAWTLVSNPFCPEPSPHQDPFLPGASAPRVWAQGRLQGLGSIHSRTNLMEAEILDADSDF

Row | SMO % inhibition at 2 uM [%] | Compound
1 | 92 | N-((1R,3R)-3-(5-Methoxy-1H-benzo[d]imidazol-2-yl)cyclohexyl)-2,3-dihydrobenzo[b][1,4]dioxine-6-carboxamide and N-((1S,3S)-3-(5-methoxy-1H-benzo[d]imidazol-2-yl)cyclohexyl)-2,3-dihydrobenzo[b][1,4]dioxine-6-carboxamide [Example 49]
2 | 84 | N-((1R,3S)-3-(1H-benzo[d]imidazol-2-yl)cyclohexyl]-2,3-dihydrobenzo[b][1,4]dioxine-6-carboxamide and N-((1S,3R)-3-(1H-benzo[d]imidazol-2-yl)cyclohexyl)-2,3-dihydrobenzo[b][1,4]dioxine-6-carboxamide [Example 2]

Same assay, conditions: 2 μM test compound, SHh 250 ng/ml, 20 hrs, HCl, 2 µM

Row | SMO CELL % INHIBITION @ 2 μM [%] | Compound
3 | 89 | N#Cc1ccc(NC(=O)NC23CCCC(c4nc5cc(C(F)(F)F)ccc5[nH]4)(C2)C3)cc1 [Example 262, 1-(4-cyanophenyl)-3-{5-[5-(trifluoromethyl)-1H-benzimidazol-2-yl]bicyclo[3.1.1]hept-1-yl}urea HCl]

Same assay, conditions: C3H 10T1/2, 2 uM test compound, SHh 250 ng/ml, 20 hrs, read-out: SMO % inhibition at 2 uM

Row | inhibition at 2 µM [%] | Compound
4 | 95 | CN(C(=O)c1ccc2c(c1)OCCO2)C1CCCC(c2nc3ccccc3n2C)C1 (stereo not shown) [Example 14, N-Methyl-N-(3-(1-methyl-1H-benzo[d]imidazol-2-yl)cyclohexyl)-2,3-dihydrobenzo[b][1,4]dioxine-6-carboxamide]
5 | 105 | COc1cc(OC)cc(C(=O)N[C@@H]2CCC[C@H](c3nc4ccc(C(F)(F)F)cc4[nH]3)C2)c1 [Example 4, 3,5-Dimethoxy-N-((1R,3S)-3-[5-(trifluoromethyl)-1H-benzo[d]imidazol-2-yl)cyclohexyl)benzamide]
6 | 87 | COCCNc1cc(C(=O)N[C@@H]2CCC[C@H](c3nc4ccccc4[nH]3)C2)ccn1 [Example 42, N-((1R,3S)-3-(1H-Benzo[d]imidazol-2-yl)cyclohexyl)-2-(2-methoxyethylamino)isonicotinamide]
7 | 100 | N#Cc1ccc2nc(C3CCCC(NC(=O)c4ccc5c(c4)OCCO5)C3)[nH]c2c1 (stereo not shown) [Example 19, N-(3-(5-Cyano-1H-benzo[d]imidazol-2-yl)cyclohexyl]-2,3-dihydrobenzo[b][1,4]dioxine-6-carboxamide]

Same assay, conditions: C3H 10T1/2, 2 μM test compound, SHh 250 ng/ml, 20 hrs, read-out: SMO CELL % INHIBITION @ 2 μM

Row | inhibition at 2 µM [%] | Compound
8 | 104 | O=C(N[C@@H]1CCC[C@H](c2nc3cc(C(F)(F)F)ccc3[nH]2)C1)c1ccc2c(c1)CN(CC1CC1)CC2 [Example 290, 2-(cyclopropyl-methyl)-N-{(1R,3S)-3-[5-(trifluoromethyl)-1H-benzimidazol-2-yl]cyclohexyl}-1,2,3,4-tetrahydroisoquino-line-7-carboxamide HCl]
9 | 98 | O=C1CCc2cc(C(=O)N[C@H]3CCC[C@H](c4nc5ccccc5[nH]4)C3)ccc2N1 [Example 247, N-(3-(1H-benzo[d]imidaz-ol-2-yl)cyclohexyl)-2-oxo-1,2,3,4-tetrahydroquino-line-6-carboxamide HCl]
10 | 86 | O=C(N[C@@H]1CCC[C@H](c2nc3ccccc3[nH]2)C1)c1ccc2scnc2c1 [Example 216, N-[(1R,3S)-3-(1H-benzimidazol-2-yl)cyclohexyl]-1,3-benzothiazole-5-carboxamide triflouroacetate]
11 | 73 | O=C(NC1CCCC(c2nc3ccccc3[nH]2)C1)c1ccc2[nH]c(=O)[nH]c(=O)c2c1 (stereo not shown) [Example 158, N-[3-(1H-benzimidazol-2-yl)cyclohexyl]-2,4-dioxo-1,2,3,4-tetrahydroquin-azoline-6-carboxamide triflouroacetate]
12 | 105 | COc1cc(OC)cc(C(=O)NC2CCCC(c3nc4ccccc4[nH]3)C2)c1 (stereo not shown) [Example 52, N-[3-(1H-benzimidazol-2-yl)cyclohexyl]-3,5-dimethoxybenz-amide HCl]
13 | 50.7 | CN1[C@H](C(=O)N[C@@H]2CCC[C@H](c3nc4ccccc4[nH]3)C2)C[C@@H]2CCCC[C@@H]21 [Example 268, (2S,3aS,7aS)-N-[(1R,3S)-3-(1H-benzimidazol-2-yl)cyclohexyl]-1-methyloctahy-dro-1H-indole-2-carboxamide HCl]
14 | 96 | O=C(N[C@@H]1CCC[C@H](c2nc3ccccc3[nH]2)C1)[C@@H]1CCc2ccccc2O1 [Example 218, (2S)-N-[(1R,3S)-3-(1H-benzimidazol-2-yl)cyclohexyl] chromane-2-carboxamide triflouroacetate]
15 | 110 | O=C(NC1CCCC(c2nc3ccccc3[nH]2)C1)c1ccc2cc[nH]c2c1 (stereo not shown) [Example 140, N-[3-(1H-benzimidazol-2-yl)cyclohexyl]-1H-indole-6-carboxamide HCl]
16 | 72 | O=C(NC1CCCC(c2nc3ccccc3[nH]2)C1)c1ccc(-c2cnco2)cc1 (stereo not shown) [Example 160, N-[3-(1H-benzimidazol-2-yl)cyclohexyl]-4-(1,3-oxazol-5-yl)benzamide triflouroacetate]
17 | 106 | Cn1cc(CC(=O)NC2CCCC(c3nc4ccccc4[nH]3)C2)c2ccccc21 (stereo not shown) [Example 115, N-[3-(1H-benzimidazol-2-yl)cyclohexyl]-2-(1-methyl-1H-indol-3-yl)acetamide triflouroacetate]
18 | 94 | N#Cc1ccc(NC(=O)NC23CCCC(c4nc5ccccc5[nH]4)(C2)C3)cc1 [Example 256, 1-(5-(1H-benzo[d]imidaz-ol-2-yl)bicyclo[3.1.1]heptan-1-yl)-3-(4-cyanophenyl)-urea HCl]
19 | 81 | COc1cc(OC)cc(C(=O)NC23CCCC(c4nc5ccccc5[nH]4)(C2)C3)c1 [Example 100, N-[5-(1H-benzimidazol-2-yl)bicyclo[3.1.1]hept-1-yl]-3,5-dimethoxybenz-amide]
20 | 46 | Cc1nc2cc(C(=O)N[C@@H]3CCC[C@H](c4nc5ccccc5[nH]4)C3)ccc2s1 [Example 215, N-[(1R,3S)-3-(1H-benzimidazol-2-yl)cyclohexyl]-2-methyl-1,3-benzothiazole-5-carboxamide triflouroacetate]
21 | 93 | O=C(CN1CCCCCC1=O)NC1CCCC(c2nc3ccccc3[nH]2)C1 (stereo not shown) [Example 112, N-[3-(1H-benzimidazol-2-yl)cyclohexyl]-2-(2-oxoazepan-1-yl)acetamide triflouroacetate]
22 | 96 | O=C(NC1CCCC(c2nc3ccccc3[nH]2)C1)c1cccnc1 (stereo not shown) [Example 53, N-[3-(1H-benzimidazol-2-yl)cyclohexyl]-nicotinamide HCl]
23 | 90.5 | Cc1cc2c(cc1C(=O)N[C@@H]1CCC[C@H](c3nc4ccccc4[nH]3)C1)OCCO2 [Example 307, N-[(1R,3S)-3-(1H-benzimidazol-2-yl)cyclohexyl]-7-methyl-2,3-dihydro-1,4-benzodioxine-6-carboxamide]
24 | 110 | O=C(NC12CCCC(c3nc4cc(Cl)ccc4[nH]3)(C1)C2)c1ccc2c(c1)OCCO2 [Example 272, N-[5-(5-chloro-1H-benzimidazol-2-yl)bicyclo[3.1.1]hept-1-yl]-2,3-dihydro-1,4-benzodioxine-6-carboxamide]
25 | 91.4 | O=C(NC12CCCC(c3nc4cc(C(F)(F)F)ccc4[nH]3)(C1)C2)c1cc2c(cn1)OCCO2 [Example 263, N-{5-[5-(trifluoromethyl)-1H-benzimidazol-2-yl]bicyclo[3.1.1]hept-1-yl}-2,3-dihydro[1,4]di-oxino[2,3-c]pyridine-7-carboxamide]
26 | 73 | O=C(COCc1ccccc1)NC1CCCC(c2nc3ccccc3[nH]2)C1 (stereo not shown) [Example 104, N-[3-(1H-benzimidazol-2-yl)cyclohexyl]-2-(benzyloxy)-acetamide triflouroacetate]
27 | 45 | O=C(N[C@H]1CCC[C@@H](c2nc3cc(Br)ccc3[nH]2)C1)c1ccc2c(c1)OCCO2 [Example 150, N-[(1S,3R)-3-(5-bromo-1H-benzimidazol-2-yl)cyclohexyl]-2,3-dihydro-1,4-benzodioxine-6-carboxamide HCl]
28 | 95 | O=C(CCCC(=O)NC1CCCC(c2nc3ccccc3[nH]2)C1)Nc1ccccc1 (stereo not shown) [Example 129, N-[3-(1H-benzimidazol-2-yl)cyclohexyl]-N′-phenylpentane diamide triflouroacetate]
29 | 85 | Cn1c(=O)[nH]c2cc(C(=O)N[C@@H]3CCC[C@H](c4nc5ccccc5[nH]4)C3)ccc21 [Example 217, N-[(1R,3S)-3-(1H-benzimidazol-2-yl)cyclohexyl]-1-methyl-2-oxo-2,3-dihydro-1H-benzimidazole-5-carboxamide triflouroacetate]
30 | 109 | CN1C(=O)COc2ccc(C(=O)N[C@H]3CCC[C@H](c4nc5ccccc5[nH]4)C3)cc21 [Example 249, N-(3-(1H-benzo[d]imidaz-ol-2-yl)cyclohexyl)-4-methyl-3-oxo-3,4-dihydro-2H-benzo[d][1,4]ox-azine-6-carboxamide HCl]
31 | 93 | CN1C[C@H](O)CC1C(=O)NC1CCCC(c2nc3ccccc3[nH]2)C1 (stereo partly drawn) [Example 113, (4R)-N-[3-(1H-benzimidazol-2-yl)cyclohexyl]-4-hydroxy-1-methyl-L-prolinamide triflouroacetate]
32 | 103 | COc1ccc(NC(=O)N[C@@H]2CCC[C@H](c3nc4ccccc4[nH]3)C2)cc1 [Example 232, 1-[(1R,3S)-3-(1H-benzimidazol-2-yl)cyclohexyl]-3-(4-methoxyphenyl) urea]
33 | 84 | Cn1cc(CN2CCCC2)cc1C(=O)NC1CCCC(c2nc3ccccc3[nH]2)C1 (stereo not shown) [Example 130, N-[3-(1H-benzimidazol-2-yl)cyclohexyl]-1-methyl-4-(pyrrolidin-1-ylmethyl)-1H-pyrrole-2-carboxamide triflouroacetate]

Row | Compound | inhibition at 2 µM [%]
34 | O=C(N[C@H]1CCC[C@@H](c2nc3ccccc3[nH]2)C1)c1ccc2c(c1)OCCO2 [Example 72, N-((1S,3R)-3-(1H-benzo[d]imidazol-2-yl)cyclohexyl)-2,3-dihydrobenzo[b] [1,4]dioxine-6-carboxamide HCl] | 96
